US6348309B1, “Process for inactivating viruses in blood and blood products” (priority 1989, dated 2002)
“Also recorded” adds a separate entry of the source.

Experiments:
[1] = 1 to 2 mg/kg of body weight; cited from earlier work
[2] = tested on: Eastern equine encephalomyelitis (EEE) virus; settings: cited from earlier work
adenovirus = assay: Photodynamic treatment of adenovirus with pre-incubation in the dark, titrated on FL cells (Example 7); format: cell-based; settings: TB instead of MB, same conditions

Cc1cc2nc3ccc(N(C)C)cc3[s+]c2cc1N.[Cl-] [TB, toluidine blue]
side effects in therapeutic use [1]: without any significant side effects
inactivation of EEE virus in plasma [2]: effectively inactivated; also recorded: failed to inactivate the virus completely
effect of photodynamic treatment on virus titer (adenovirus): not reduced
